Data taken from PMC4183595, “Study on the Main Components Interaction from Flos Lonicerae and Fructus Forsythiae and Their Dissolution In Vitro and Intestinal Absorption in Rats” (PLoS ONE, 2014).
Where two headings read alike, the source gives them in different places.

Legend:
[1] = Rat in vivo pharmacokinetics study after oral administration of product A, B or C; parameters: species or system Male Sprague-Dawley (SD) rats; AUC 0→t in product C group, increased to % compared to that in product A or B groups: concentration or dose not given beside the values; details: for AUC(0-t) / AUC(0-inf) / MRT / Tmax / half-life / Cmax: male, Sprague-Dawley, rat, plasma; for AUC(0-t) / AUC(0-inf) / MRT / Tmax / half-life: 10 mL·kg^−1; for AUC(0-t): oral product C group; for AUC(0-inf) / MRT / Tmax / half-life / Cmax: po, 10 mL·kg^−1, rats; for half-life: read-out: T 1/2z; for Cmax: mean±SD; for AUC 0→t in product C group, increased to % compared to that in product A or B groups: product C versus product A or B
Procedure: Product A (extract mixed with FLJ extract and water, (1∶1, v / v )), product B (extract mixed with FF extract and water, (1∶1, v / v )) and product C (extract mixed with FLJ and FF extracts, (1∶1, v / v )) were given to oral administration to rats, respectively.
Male SD rats (∼250 g) were kept in an environmentally controlled breeding room (temperature: 20±2°C, relative humidity: 60±5%) for 1 week. […] The rats were randomly divided into three groups with no less than six rats in each group to receive various administrations at a single oral dose (10 mL·kg^−1) by gastric gavage. […] Subsequently, plasma was prepared by centrifugation at 1,816×g, 4°C for 7 min, and immediately analyzed or stored at −70°C for further analysis.
The main pharmacokinetic parameters including the peak plasma concentration (C max), the time to C max (T max), the AUC from 0 to infinity (AUC 0–∞), the AUC form 0 to time (AUC 0–t), mean residence time (MRT), and terminal elimination half-life (T 1/2z) were calculated by the non-compartmental analysis of plasma concentration vs. time data using the “DAS 2.1.1” software (Mathematical Pharmacology Professional Committee of China, Shanghai, China).

Caco-2 cells = assay: In vitro Caco-2 monolayer model, apical to basolateral transport (P app); assay type: in vitro ADME, human; details: Caco-2 monolayer; for P app in product C group, % compared to that in product A group / P app in product C group, % compared with that in product B group: HBSS pH 6.0, apical to basolateral
Procedure: Caco-2 cells were cultured in high glucose DMEM with 10% fetal bovine serum, 1% nonessential amino acids. Cells were cultured in a humidified atmosphere of 5% CO2 at 37°C. After reaching 80% confluens, Caco-2 cells were harvested with 0.05% trypsin-EDTA solution and seeded on top of CC inserts in 6-well plates, which has a surface area of 4.2 cm^2, at a density of 1.0×10^5 cells/cm^2. The protocols for cell culture in Transwell inserts were similar to those described previously.
Hank’s balanced salt solution (HBSS) was used as the transport buffer for the transport study in Caco-2 cells monolayer model. It was prepared by dissolving 9.5 grams of commercial available HBSS powder in 1000 mL water.
Cell culture experiments were described previously. Briefly, after culture medium was aspirated, the cell monolayers were washed three times with blank HBSS. […] The monolayers were incubated with the blank HBSS for 1 h with 37°C. Thereafter the incubation medium was aspirated. Afterwards, a solution containing the compound was loaded onto the apical side. The amounts of transported compound were measured as a function of time. […] The samples were taken at 0, 1, 2, 3 and 4 h after incubation. At the end of the transport experiment, integrity of the monolayer was monitored by TEER value.

P-gp, MRP2 and BCRP = tested on: P-gp, MRP2 and BCRP; parameters: method as in PMID 24035225, PMID 25442264; details: previous study; ref [21]–[22]; cited from earlier work
[2] = single oral dose 10 mL·kg^−1 of product A (FLJ extract and water 1:1)
[3] = single oral dose 10 mL·kg^−1 of product C (FLJ and FF extracts 1:1)
[4] = single oral dose 10 mL·kg^−1 of product B (FF extract and water 1:1)

Row | Structure (SMILES) | AUC(0-t) ([1]; rats) | AUC(0-inf) ([1]; oral product A) | MRT ([1]; oral product A) | Tmax ([1]; oral product A) | half-life ([1]; oral product A) | AUC(0-inf) ([1]; oral product C) | MRT ([1]; oral product C) | Tmax ([1]; oral product C) | half-life ([1]; oral product C) | Cmax [1, 2] | Cmax [1, 3] | AUC 0→t in product C group, increased to % compared to that in product A or B groups ([1]; rats, oral) | P app in product C group, % compared to that in product A group (Caco-2 cells) | efflux transporters influencing the intestinal absorption (P-gp, MRP2 and BCRP) | AUC(0-inf) ([1]; oral product B) | MRT ([1]; oral product B) | Tmax ([1]; oral product B) | half-life ([1]; oral product B) | Cmax [1, 4] | bioavailability in product C group compared with that in product A group ([1]; rats, oral) | other results
1 | O=C(C=Cc1ccc(O)c(O)c1)OC1CC(O)(C(=O)O)CC(O)C1OC(=O)C=Cc1ccc(O)c(O)c1 (stereo not shown) [3,4-dicaffeoylquinic acid] | 24.4 ng·h/mL | 22.9 ng·h/mL | 7.03 h | 0.25 h | 4.92 ± 0.617 h | 38.8 ng·h/mL | 8.95 h | 0.2 h | 6.82 ± 2.38 h | 4.79 ± 1.87 ng/mL | 12.5 ± 4.07 ng/mL | 318% | 137% | influenced by P-gp, MRP2 and BCRP |  |  |  |  |  |  | 
2 | O=C(/C=C/c1ccc(O)c(O)c1)O[C@@H]1C[C@](O)(C(=O)O)C[C@@H](OC(=O)/C=C/c2ccc(O)c(O)c2)[C@H]1O [3,5-dicaffeoylquinic acid] | 82.4 ng·h/mL | 71.5 ng·h/mL | 7.3 h |  | 4.87 ± 1.29 h | 89.7 ng·h/mL | 9.63 h | 0.167 h | 7.33 ± 0.79 h | 27.6 ± 4.73 ng/mL | 30.8 ± 5.66 ng/mL | 162% | 164% | influenced by P-gp, MRP2 and BCRP |  |  |  |  |  |  | 
3 | O=C(/C=C/c1ccc(O)c(O)c1)O[C@@H]1C[C@](O)(C(=O)O)C[C@@H](O)[C@H]1O [Chlorogenic acid] | 1270 ng·h/mL | 707 ng·h/mL | 5.78 h | 0.167 h | 5.37 ± 0.733 h |  | 8.28 h | 0.167 h | 7.68 ± 0.535 h | 367 ± 169 ng/mL | 661 ± 294 ng/mL | 215% | 140% | influenced by P-gp, MRP2 and BCRP |  |  |  |  |  |  | 
4 | O=c1cc(-c2ccc(O)c(O)c2)oc2cc(O)cc(O)c12 [Luteolin] |  | 88.3 ng·h/mL | 5.78 h | 0.167 h | 7.05 ± 0.943 h | 46.9 ng·h/mL | 4.67 h | 0.167 h | 4.42 ± 0.262 h | 44.9 ± 19.8 ng/mL | 19.5 ± 5.43 ng/mL |  | 240% |  |  |  |  |  |  |  | AUC 0→t in product C group compared with product A or B group ([1]; rats, oral, same dosages administrated): lower significantly
5 | O=c1cc(-c2ccc(O)c(O)c2)oc2cc(O[C@@H]3O[C@H](CO)[C@@H](O)[C@H](O)[C@H]3O)cc(O)c12 [Luteoloside] | 4.76 ng·h/mL | 2.97 ng·h/mL |  | 0.167 h | 6.38 ± 0.22 h | 5 ng·h/mL |  | 0.167 h | 9.65 ± 1.43 h | 1.26 ± 0.655 ng/mL | 2.48 ± 1.34 ng/mL | 137% | 174% |  |  |  |  |  |  |  | 
6 | COc1cc(C2OCC3C(c4ccc(O[C@@H]5O[C@H](CO)[C@@H](O)[C@H](O)[C@H]5O)c(OC)c4)OCC23)ccc1O (stereo partly drawn) [Pinoresinol-β-D-glucoside] | 17.1 ng·h/mL |  |  |  |  | 67.8 ng·h/mL | 7.57 h | 0.167 h | 5.25 ± 0.472 h |  | 32.3 ± 7.57 ng/mL | 299% |  |  | 32 ng·h/mL | 4.1 h | 0.167 h | 3.37 ± 0.21 h | 11.9 ± 4.36 ng/mL |  | P app, product C group versus product B group (Caco-2 cells): no significant difference
7 | O=c1c(O)c(-c2ccc(O)c(O)c2)oc2cc(O)cc(O)c12 [Quercetin] |  | 144 ng·h/mL | 8.22 h | 0.167 h | 4.62 ± 0.877 h | 52.4 ng·h/mL | 7.12 h | 0.167 h | 4.67 ± 1.05 h | 15.6 ± 4.39 ng/mL | 8.02 ± 0.493 ng/mL |  | 125% |  | 65 ng·h/mL | 7 h | 0.167 h | 5.27 ± 0.93 h | 12.6 ± 2.23 ng/mL | opposite | bioavailability in product C group compared with that in product B group ([1]; rats, oral): opposite; P app in product C group, % compared with that in product B group (Caco-2 cells): 256%
8 | O=C(O)[C@]1(O)C[C@@H](O)[C@@H](O)[C@H](O)C1 [Quinic acid] |  |  | 3.98 h | 0.35 h | 3.82 ± 0.28 h |  | 7.35 h | 0.167 h | 5.5 ± 1.27 h |  |  |  | 301% |  |  | 4.5 h | 0.3 h | 4.1 ± 0.628 h | 358 ± 157 ng/mL | no significant difference | bioavailability in product C group compared with that in product B group ([1]; rats, oral): higher significantly; P app in product C group, % compared with that in product B group (Caco-2 cells): 24.0%
9 | C[C@@H]1O[C@@H](OC[C@H]2O[C@@H](Oc3c(-c4ccc(O)c(O)c4)oc4cc(O)cc(O)c4c3=O)[C@H](O)[C@@H](O)[C@@H]2O)[C@H](O)[C@H](O)[C@H]1O [Rutin] |  | 10.3 ng·h/mL | 5.02 h | 0.167 h | 7.93 ± 0.837 h | 22.8 ng·h/mL | 4.88 h | 0.167 h | 7.55 ± 0.613 h | 4.08 ± 1.99 ng/mL | 19.8 ± 3.93 ng/mL |  | 213% |  | 30.5 ng·h/mL | 4.35 h |  | 8.17 ± 1.55 h | 14.6 ± 1.65 ng/mL | significantly higher | bioavailability in product C group compared with that in product B group ([1]; rats, oral): no significant difference; P app in product C group, % compared with that in product B group (Caco-2 cells): 210%
